Reference: PubChem BioAssay (NCI)
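All cell lines were grown in 96-well plates and treated with compound for 48 hours. At the TGI there is no net growth.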

How the values were obtained:
Experiment in all cases: NCI anticancer screen, dose series, 48 h
MDA-MB-435 = system: MDA-MB-435
COLO 205 colon = system: COLO 205 colon
K-562 leukemia = system: K-562 leukemia
SN12C renal = system: SN12C renal
SK-OV-3 ovarian = system: SK-OV-3 ovarian
SK-MEL-28 melanoma = system: SK-MEL-28 melanoma
786-0 renal = system: 786-0 renal
SF-295 CNS = system: SF-295 CNS
OVCAR-5 ovarian = system: OVCAR-5 ovarian
SNB-19 CNS = system: SNB-19 CNS
MOLT-4 leukemia = system: MOLT-4 leukemia
U251 CNS = system: U251 CNS
SF-539 CNS = system: SF-539 CNS
EKVX NSCLC = system: EKVX NSCLC
MDA-MB-231 breast = system: MDA-MB-231 breast
A549 NSCLC = system: A549 NSCLC
SR leukemia = system: SR leukemia
BT-549 breast = system: BT-549 breast
CCRF-CEM leukemia = system: CCRF-CEM leukemia
NCI-H23 lung = system: NCI-H23 lung
OVCAR-3 ovarian = system: OVCAR-3 ovarian
SW-620 colon = system: SW-620 colon
HL-60(TB) leukemia = system: HL-60(TB) leukemia
SF-268 CNS = system: SF-268 CNS
M14 melanoma = system: M14 melanoma
IGROV1 ovarian = system: IGROV1 ovarian
UO-31 renal = system: UO-31 renal
OVCAR-8 ovarian = system: OVCAR-8 ovarian
MDA-N = system: MDA-N
NCI-H522 lung = system: NCI-H522 lung
LOX IMVI melanoma = system: LOX IMVI melanoma
MCF7 breast = system: MCF7 breast
UACC-257 melanoma = system: UACC-257 melanoma
NCI-H460 lung = system: NCI-H460 lung
HCT-116 colon = system: HCT-116 colon
HOP-62 NSCLC = system: HOP-62 NSCLC
HT29 colon = system: HT29 colon
PC-3 prostate = system: PC-3 prostate
DU-145 prostate = system: DU-145 prostate
HCC-2998 colon = system: HCC-2998 colon
OVCAR-4 ovarian = system: OVCAR-4 ovarian
NCI/ADR-RES ovarian = system: NCI/ADR-RES ovarian
HCT-15 colon = system: HCT-15 colon
T-47D breast = system: T-47D breast
KM12 colon = system: KM12 colon
SNB-75 CNS = system: SNB-75 CNS
UACC-62 melanoma = system: UACC-62 melanoma
SK-MEL-5 melanoma = system: SK-MEL-5 melanoma
NCI-H226 lung = system: NCI-H226 lung
TK-10 renal = system: TK-10 renal
RPMI-8226 leukemia = system: RPMI-8226 leukemia
ACHN renal = system: ACHN renal
CAKI-1 renal = system: CAKI-1 renal
SK-MEL-2 melanoma = system: SK-MEL-2 melanoma
A498 renal = system: A498 renal
HOP-92 NSCLC = system: HOP-92 NSCLC

Molecule SCCCSCCSCCCSCCS has a TGI (MDA-MB-435) greater than 100 µM, a TGI (COLO 205 colon) greater than 100 µM and a TGI (K-562 leukemia) greater than 100 µM. For the same molecule, the TGI (SN12C renal) was greater than 100 µM, the TGI (SK-OV-3 ovarian) was greater than 100 µM and the TGI (SK-MEL-28 melanoma) was greater than 100 µM. For the same molecule, the TGI (786-0 renal) was greater than 100 µM, the TGI (SF-295 CNS) was greater than 100 µM and the TGI (OVCAR-5 ovarian) was greater than 100 µM. The TGI (SNB-19 CNS) was greater than 100 µM, the TGI (MOLT-4 leukemia) was greater than 100 µM and the TGI (U251 CNS) was greater than 100 µM. It also gave a TGI (SF-539 CNS) greater than 100 µM, a TGI (EKVX NSCLC) greater than 100 µM and a TGI (MDA-MB-231 breast) greater than 100 µM. It also gave a TGI (A549 NSCLC) greater than 100 µM, a TGI (SR leukemia) greater than 100 µM and a TGI (BT-549 breast) greater than 100 µM. It also gave a TGI (CCRF-CEM leukemia) greater than 100 µM, a TGI (NCI-H23 lung) greater than 100 µM and a TGI (OVCAR-3 ovarian) greater than 100 µM. The TGI (SW-620 colon) was greater than 100 µM, the TGI (HL-60(TB) leukemia) was greater than 100 µM and the TGI (SF-268 CNS) was greater than 100 µM. For the same molecule, the TGI (M14 melanoma) was greater than 100 µM, the TGI (IGROV1 ovarian) was greater than 100 µM and the TGI (UO-31 renal) was greater than 100 µM. The TGI (OVCAR-8 ovarian) was greater than 100 µM, the TGI (MDA-N) was greater than 100 µM and the TGI (NCI-H522 lung) was greater than 100 µM. For the same molecule, the TGI (LOX IMVI melanoma) was greater than 100 µM, the TGI (MCF7 breast) was greater than 100 µM and the TGI (UACC-257 melanoma) was greater than 100 µM. For the same molecule, the TGI (NCI-H460 lung) was greater than 100 µM, the TGI (HCT-116 colon) was greater than 100 µM and the TGI (HOP-62 NSCLC) was greater than 100 µM. For the same molecule, the TGI (HT29 colon) was greater than 100 µM, the TGI (PC-3 prostate) was greater than 100 µM and the TGI (DU-145 prostate) was greater than 100 µM. For the same molecule, the TGI (HCC-2998 colon) was greater than 100 µM, the TGI (OVCAR-4 ovarian) was greater than 100 µM and the TGI (NCI/ADR-RES ovarian) was greater than 100 µM. The TGI (HCT-15 colon) was greater than 100 µM, the TGI (T-47D breast) was greater than 100 µM and the TGI (KM12 colon) was greater than 100 µM. It also gave a TGI (SNB-75 CNS) greater than 100 µM, a TGI (UACC-62 melanoma) greater than 100 µM and a TGI (SK-MEL-5 melanoma) greater than 100 µM.

CCNC(=S)NNC(=O)c1csc(NC(=S)NC2CCCCC2)n1 was tested, and the TGI (MDA-MB-435) was 21.1 µM, the TGI (NCI-H226 lung) was greater than 100 µM and the TGI (COLO 205 colon) was 21.9 µM. The TGI (SN12C renal) was 17.3 µM, the TGI (SK-OV-3 ovarian) was 62.3 µM and the TGI (786-0 renal) was 25.6 µM. The TGI (SF-295 CNS) was 40.7 µM, the TGI (OVCAR-5 ovarian) was greater than 100 µM and the TGI (SNB-19 CNS) was greater than 100 µM. For the same molecule, the TGI (MOLT-4 leukemia) was 63.5 µM, the TGI (U251 CNS) was 23.7 µM and the TGI (SF-539 CNS) was 22.8 µM. It also gave a TGI (EKVX NSCLC) greater than 100 µM, a TGI (TK-10 renal) greater than 100 µM and a TGI (MDA-MB-231 breast) of 24.9 µM. The TGI (A549 NSCLC) was 67.8 µM, the TGI (SR leukemia) was greater than 100 µM and the TGI (BT-549 breast) was 36.6 µM. It also gave a TGI (CCRF-CEM leukemia) greater than 100 µM, a TGI (NCI-H23 lung) greater than 100 µM and a TGI (OVCAR-3 ovarian) of 16.2 µM. For the same molecule, the TGI (SW-620 colon) was 19.2 µM, the TGI (RPMI-8226 leukemia) was 71.6 µM and the TGI (SF-268 CNS) was 31.4 µM. It also gave a TGI (M14 melanoma) of 27.1 µM, a TGI (UO-31 renal) of 23.1 µM and a TGI (OVCAR-8 ovarian) of 28.1 µM. For the same molecule, the TGI (MDA-N) was 15.8 µM, the TGI (ACHN renal) was 89.8 µM and the TGI (LOX IMVI melanoma) was 21.4 µM. The TGI (MCF7 breast) was greater than 100 µM, the TGI (UACC-257 melanoma) was 27.3 µM and the TGI (NCI-H460 lung) was 35.2 µM. It also gave a TGI (HCT-116 colon) of 18.8 µM, a TGI (HOP-62 NSCLC) of 32.4 µM and a TGI (HT29 colon) greater than 100 µM. For the same molecule, the TGI (PC-3 prostate) was 64.5 µM, the TGI (DU-145 prostate) was 45.8 µM and the TGI (HCC-2998 colon) was 23.8 µM. It also gave a TGI (OVCAR-4 ovarian) of 56.9 µM, a TGI (NCI/ADR-RES ovarian) of 42.4 µM and a TGI (HCT-15 colon) of 37.2 µM. It also gave a TGI (T-47D breast) of 53.7 µM, a TGI (KM12 colon) of 28 µM and a TGI (CAKI-1 renal) of 31.1 µM. For the same molecule, the TGI (SK-MEL-2 melanoma) was 29.3 µM, the TGI (A498 renal) was 40 µM and the TGI (UACC-62 melanoma) was 27.7 µM. For the same molecule, the TGI (SK-MEL-5 melanoma) was 15.5 µM.

COC(=O)c1ccc(NC(=O)c2cc3c(cc2Br)OCO3)o1 was tested, and the TGI (MDA-MB-435) was greater than 100 µM, the TGI (NCI-H226 lung) was greater than 100 µM and the TGI (COLO 205 colon) was greater than 100 µM. It also gave a TGI (K-562 leukemia) greater than 100 µM, a TGI (SN12C renal) greater than 100 µM and a TGI (SK-OV-3 ovarian) greater than 100 µM. The TGI (SK-MEL-28 melanoma) was greater than 100 µM, the TGI (786-0 renal) was greater than 100 µM and the TGI (SF-295 CNS) was greater than 100 µM. It also gave a TGI (OVCAR-5 ovarian) greater than 100 µM, a TGI (SNB-19 CNS) greater than 100 µM and a TGI (MOLT-4 leukemia) greater than 100 µM. For the same molecule, the TGI (U251 CNS) was greater than 100 µM, the TGI (SF-539 CNS) was greater than 100 µM and the TGI (EKVX NSCLC) was greater than 100 µM. For the same molecule, the TGI (TK-10 renal) was greater than 100 µM, the TGI (MDA-MB-231 breast) was greater than 100 µM and the TGI (A549 NSCLC) was greater than 100 µM. It also gave a TGI (SR leukemia) greater than 100 µM, a TGI (BT-549 breast) greater than 100 µM and a TGI (CCRF-CEM leukemia) greater than 100 µM. It also gave a TGI (NCI-H23 lung) greater than 100 µM, a TGI (OVCAR-3 ovarian) greater than 100 µM and a TGI (SW-620 colon) greater than 100 µM. The TGI (HL-60(TB) leukemia) was greater than 100 µM, the TGI (RPMI-8226 leukemia) was greater than 100 µM and the TGI (SF-268 CNS) was 69.8 µM. The TGI (M14 melanoma) was greater than 100 µM, the TGI (IGROV1 ovarian) was greater than 100 µM and the TGI (UO-31 renal) was greater than 100 µM. The TGI (OVCAR-8 ovarian) was greater than 100 µM, the TGI (MDA-N) was greater than 100 µM and the TGI (NCI-H522 lung) was greater than 100 µM. The TGI (ACHN renal) was greater than 100 µM, the TGI (LOX IMVI melanoma) was greater than 100 µM and the TGI (MCF7 breast) was greater than 100 µM. The TGI (UACC-257 melanoma) was greater than 100 µM, the TGI (HCT-116 colon) was greater than 100 µM and the TGI (HOP-62 NSCLC) was greater than 100 µM. It also gave a TGI (HT29 colon) greater than 100 µM, a TGI (PC-3 prostate) greater than 100 µM and a TGI (DU-145 prostate) greater than 100 µM. It also gave a TGI (HOP-92 NSCLC) greater than 100 µM, a TGI (HCC-2998 colon) greater than 100 µM and a TGI (OVCAR-4 ovarian) greater than 100 µM. The TGI (NCI/ADR-RES ovarian) was greater than 100 µM, the TGI (HCT-15 colon) was greater than 100 µM and the TGI (T-47D breast) was greater than 100 µM. For the same molecule, the TGI (KM12 colon) was greater than 100 µM, the TGI (CAKI-1 renal) was greater than 100 µM and the TGI (SK-MEL-2 melanoma) was greater than 100 µM. For the same molecule, the TGI (A498 renal) was greater than 100 µM, the TGI (UACC-62 melanoma) was greater than 100 µM and the TGI (SK-MEL-5 melanoma) was greater than 100 µM.
